Article PMC9763333, “In vitro characterization of immune modulating drug-eluting immunobeads towards transarterial embolization in cancer” (Scientific Reports, 2022)
Values joined by “and” are separate entries in the source; they are usually repeats but may differ in a detail not shown here. Identical values can stand only once. Like-named read-outs stand apart in the source and are kept apart here.

Tests used:
[1] = Drug release from DC Bead LUMI in saline; format: physicochemical; settings: for release in saline from DC Bead LUMI after multiple washes in deionized water: single replicates, listed as DSR
Protocol: […] Briefly, drug-loaded DC Bead LUMI or LC Bead (62.5 µL) were placed in vessels with 50 mL of saline ([…], pH 7.4) and were agitated with upright rocking motion at a set maximum rocking speed of 10 (70 rpm) for 144 h at 37 °C using Ward's® Rotating Mixer. At scheduled time intervals identical to the loading time points, 1 mL of release media was withdrawn and used for drug quantification. To maintain 50 mL total elution volume, 1 mL of fresh saline pre heated to 37 °C was replaced at each timepoint. […] 2.4. The cumulative amount of drug released at each time point was calculated by multiplying the concentration of each sample aliquot by the total volume (50 mL) of release media and adding the sum of the amount of drug removed for sampling at prior time points. […] The 50 mL volume was chosen to ensure infinite sink conditions where the maximum possible concentration of eluted drug would be at least 10 times more dilute than the maximum solubility. This ensures the rate of release is not affected by solution concentration but is only a function of interactions of the bead, drug, and saline.

[2] = Drug loading into DC Bead LUMI; format: physicochemical; settings: for Relative percent drug loaded in DC Bead LUMI over time: listed as DSR; for Relative percent drug loaded (maximum, percent of SO3− available on a molar basis): mean (n = 3)
Protocol: DC Bead LUMI was analyzed for its elemental composition by MEDAC Inc. […] Drug loading was performed in triplicate as previously reported[45] with slight modifications. […] Washing of beads is often a critical step in drug release studies as any drug left unbound to the beads affects the release profile and exaggerates the early burst release. […] However, washing was discontinued for TLR drugs as drug was continually observed even after multiple washes. […] The amount of drug loaded at the specified time points was calculated by subtracting the amount of drug remaining from the initial amount of drug in the loading solution and the cumulative amount of drug withdrawn for sampling. The maximum drug loaded in the beads was calculated once no further change in the concentration in the loading solution could be measured and before washing the beads. The relative percent drug loaded was defined as the maximum amount of drug loaded as a percent of the amount of SO3^- ions available in the beads on a molar basis using the following formula and the results are presented as the mean ± SD.

[3] = Washing of drug-loaded beads with deionized water and microscopic appearance; format: physicochemical
Protocol: Drug loading was performed in triplicate as previously reported[45] with slight modifications. […] Washing of beads is often a critical step in drug release studies as any drug left unbound to the beads affects the release profile and exaggerates the early burst release. […] However, washing was discontinued for TLR drugs as drug was continually observed even after multiple washes. […] The amount of drug loaded at the specified time points was calculated by subtracting the amount of drug remaining from the initial amount of drug in the loading solution and the cumulative amount of drug withdrawn for sampling. The maximum drug loaded in the beads was calculated once no further change in the concentration in the loading solution could be measured and before washing the beads. The relative percent drug loaded was defined as the maximum amount of drug loaded as a percent of the amount of SO3^- ions available in the beads on a molar basis using the following formula and the results are presented as the mean ± SD.

[4] = Drug solubilization by salt formation in acid; format: physicochemical; settings: T in °C in parentheses in the cell (20.1 or 21.1)
Protocol: The base form of each drug was suspended in deionized water and titrated with 0.1 N hydrochloric acid (Fisher Scientific, Hampton, NH) while stirring until all the base was solubilized and the volume adjusted to a final concentration of 2.5 mg/mL. The resulting solution was frozen, then lyophilized to yield solid drug-hydrochloride salt or used in its solubilized form for loading into DC Bead LUMI. […] Doxorubicin.HCl was readily solubilized and used without modification. […] A ZORBAX Eclipse Plus C8 reversed-phase column (Agilent) and UV detector at wavelength of 230 nm were used for GS-9620 analysis. The decomposition product of GS-9620 was analyzed with reversed phase high-performance liquid chromatography (Rp-HPLC) and LC/MS.

[5] = pKa measurement by triple titration in methanol–water co-solvent with Yasuda-Shedlovsky extrapolation; format: physicochemical; settings: for pKa: methanol–water co-solvent, aqueous value by Yasuda-Shedlovsky extrapolation; for psKa1 / psKa2 / psKa3: methanol–water
Protocol: pKa measurements were performed by Pion Inc, UK Ltd using known methods as previously reported[47]–[50] or calculated by using software MoKa (Molecular Discovery, Borehamwood, Hertfordshire, UK, https://www.moldiscovery.com/software/moka/#references) or directly obtained from the literature. For GARD and DSR 6434, a triple titration was carried out under methanol–water co-solvent conditions from pH 2.0–12.0 at concentrations of 2.3–1.3 mM (the methanol mixing ratio varied from 49.0 to 28.9% w/w) and 1.5–0.9 mM (the methanol mixing ratio varied from 49.6 to 29.1% w/w), respectively.

[6] = parameters: method as in PMID 28188808; settings: 0.08 mmol irinotecan; cited from earlier work

For CCCCNc1nc(N)c2[nH]c(=O)n(Cc3ccc(OCCN(C)C)nc3)c2n1 [DSR 6434], the “release in saline from DC Bead LUMI after multiple washes in deionized water” value (“release in saline from DC Bead LUMI” below) ([1]; 5 min) was 11.6669 mg/mL of beads and 21.0618 mg/mL of beads and 12.3038 mg/mL of beads, the “release in saline from DC Bead LUMI” value ([1]; 15 min) was 12.2718 mg/mL of beads and 15.5382 mg/mL of beads and 12.6826 mg/mL of beads and the “release in saline from DC Bead LUMI” value ([1]; 30 min) was 12.9372 mg/mL of beads and 16.3714 mg/mL of beads and 14.5502 mg/mL of beads. For the same molecule, the “release in saline from DC Bead LUMI” value ([1]; 45 min) was 13.4518 mg/mL of beads and 17.0028 mg/mL of beads and 14.9641 mg/mL of beads, the “release in saline from DC Bead LUMI” value ([1]; 60 min) was 13.786 mg/mL of beads and 17.7202 mg/mL of beads and 15.5663 mg/mL of beads and the “release in saline from DC Bead LUMI” value ([1]; 120 min) was 14.3607 mg/mL of beads and 18.3129 mg/mL of beads and 16.228 mg/mL of beads. The “release in saline from DC Bead LUMI” value ([1]; 180 min) was 16.0563 mg/mL of beads and 19.309 mg/mL of beads and 16.8971 mg/mL of beads, the “release in saline from DC Bead LUMI” value ([1]; 240 min) was 15.1532 mg/mL of beads and 19.1241 mg/mL of beads and 17.0694 mg/mL of beads and the “release in saline from DC Bead LUMI” value ([1]; 300 min) was 15.5267 mg/mL of beads and 19.8574 mg/mL of beads and 17.3452 mg/mL of beads. For the same molecule, the “release in saline from DC Bead LUMI” value ([1]; 360 min) was 16.1146 mg/mL of beads and 19.776 mg/mL of beads and 18.2574 mg/mL of beads, the “release in saline from DC Bead LUMI” value ([1]; 420 min) was 15.8596 mg/mL of beads and 19.8188 mg/mL of beads and 17.9345 mg/mL of beads and the “release in saline from DC Bead LUMI” value ([1]; 480 min) was 16.4167 mg/mL of beads and 20.0149 mg/mL of beads and 17.9173 mg/mL of beads. For the same molecule, the “release in saline from DC Bead LUMI” value ([1]; 1440 min) was 16.847 mg/mL of beads and 20.6066 mg/mL of beads and 18.2918 mg/mL of beads, the “release in saline from DC Bead LUMI” value ([1]; 2880 min) was 17.1212 mg/mL of beads and 20.6727 mg/mL of beads and 18.4291 mg/mL of beads and the “release in saline from DC Bead LUMI” value ([1]; 4320 min) was 17.0504 mg/mL of beads and 20.4416 mg/mL of beads and 18.5897 mg/mL of beads. For the same molecule, the “release in saline from DC Bead LUMI” value ([1]; 8640 min) was 16.3092 mg/mL of beads and 19.4828 mg/mL of beads and 17.2615 mg/mL of beads, the “release behaviour in saline” value ([1]; DC Bead LUMI) was “rapid release” and the “Relative percent drug loaded in DC Bead LUMI over time” value ([2]; 5 min, single replicates) was 39.5677% and 47.7348% and 48.9285%. For the same molecule, the “Relative percent drug loaded in DC Bead LUMI over time” value ([2]; 15 min, single replicates) was 41.6488% and 50.8205% and 51.9687%, the “Relative percent drug loaded in DC Bead LUMI over time” value ([2]; 30 min, single replicates) was 42.6689% and 54.1338% and 55.2332% and the “Relative percent drug loaded in DC Bead LUMI over time” value ([2]; 45 min, single replicates) was 48.2468% and 57.0357% and 58.0924%. The “Relative percent drug loaded in DC Bead LUMI over time” value ([2]; 60 min, single replicates) was 49.3314% and 55.3694% and 56.4506%, the “Relative percent drug loaded in DC Bead LUMI over time” value ([2]; 120 min, single replicates) was 50.4129% and 60.3547% and 61.3625% and the “Relative percent drug loaded in DC Bead LUMI over time” value ([2]; 180 min, single replicates) was 49.4039% and 56.8373% and 57.8969%. For the same molecule, the “Relative percent drug loaded in DC Bead LUMI over time” value ([2]; 240 min, single replicates) was 49.4386% and 53.9704% and 55.0722%, the “Relative percent drug loaded in DC Bead LUMI over time” value ([2]; 300 min, single replicates) was 48.7119% and 56.2576% and 57.3257% and the “Relative percent drug loaded in DC Bead LUMI over time” value ([2]; 360 min, single replicates) was 47.0211% and 54.6141% and 55.7064%. The “Relative percent drug loaded in DC Bead LUMI over time” value ([2]; 420 min, single replicates) was 47.0555% and 55.952% and 57.0246%, the “Relative percent drug loaded in DC Bead LUMI over time” value ([2]; 480 min, single replicates) was 47.3643% and 55.2849% and 56.3673% and the “Relative percent drug loaded in DC Bead LUMI over time” value ([2]; 1440 min, single replicates) was 46.9195% and 55.3847% and 56.4657%. For the same molecule, the “Relative percent drug loaded in DC Bead LUMI over time” value ([2]; 2880 min, single replicates) was 43.3022% and 55.4842% and 56.5637%, the “Relative percent drug loaded in DC Bead LUMI over time” value ([2]; 4320 min, single replicates) was 46.6711% and 54.7234% and 55.8141% and the “Relative percent drug loaded in DC Bead LUMI over time” value ([2]; 8640 min, single replicates) was 45.7549% and 53.8658% and 54.9692%. For the same molecule, the “loading behaviour” value ([2]; DC Bead LUMI) was “Fast loading”, the “Relative percent drug loaded (maximum, percent of SO3− available on a molar basis)” value ([2]; DC Bead LUMI) was 57% and the “Relative percent drug loaded (maximum, percent of SO3− available on a molar basis)” value ([2]; DC Bead LUMI, listed as DSR-6434) was 57.38%. The “equivalent of drug loaded to sulfonated bead” value ([2]; DC Bead LUMI, mean ± SD) was 0.16 ± 0.02 mM drug/ml beads, the Maximum drug loaded ([2]; DC Bead LUMI, mean ± SD, n = 3, base form except Dox (salt form)) was 65.95 ± 6.96 mg drug/ml beads and the “Maximum drug loaded (Triplicate), %” value ([2]; DC Bead LUMI, single replicates) was 50.4129% and 60.3547% and 61.3625%. For the same molecule, the “Drug: sulfonate” value ([2]; molar ratio at maximum loading, DC Bead LUMI) was 0.574, the “Theoretical maximum loading level based on SO3− contents” value ([2]; per mL DC Bead LUMI, assuming 1:1 drug to sulfonate) was 114.94 mg and the “removal of drug from beads by repeated washing with deionized water” value ([3]; DC Bead LUMI) was “partially removed”. For the same molecule, the “aggregation of drug during washing / elution” value ([3]; deionized water and saline, microscopy) was “absence of aggregated”, the “pH at which each drug dissolved for loading” value [4] was 1.65 (20.1) and the pKa ([5]; read-out: pKa (first, measured)) was 4.58. For the same molecule, the pKa ([5]; read-out: pKa (second, measured)) was 8.5, the pKa ([5]; read-out: pKa (third, measured)) was 9.94 and the psKa1 ([5]; dielectric constant 56.6) was 4.18. It also gave a psKa2 ([5]; dielectric constant 56.6) of 8.14, a psKa3 ([5]; dielectric constant 56.6) of 10.7073 and a psKa1 ([5]; dielectric constant 61.4) of 4.3. The psKa2 ([5]; dielectric constant 61.4) was 8.24, the psKa3 ([5]; dielectric constant 61.4) was 10.5143 and the psKa1 ([5]; dielectric constant 65.9) was 4.39. It also gave a psKa2 ([5]; dielectric constant 65.9) of 8.34 and a psKa3 ([5]; dielectric constant 65.9) of 10.3389.
In the case of CCc1c2c(nc3ccc(OC(=O)N4CCC(N5CCCCC5)CC4)cc13)-c1cc3c(c(=O)n1C2)COC(=O)[C@]3(O)CC [irinotecan], the “time to load drug to DC Bead LUMI” value [6] is given as ≤ 10 min.
